Laboratory results: patent US20150141381A1, “TETRACYCLINE COMPOUNDS HAVING TARGET THERAPEUTIC ACTIVITIES” (Paratek Pharmaceuticals, Inc., priority 2001, published 2015)
Where two headings read alike, the source gives them in different places.

Key:
[1] = tested on: S. aureus RN450; assay: In Vitro Anti-Bacterial Activity Assay (MIC), gram positive; assay type: cell-based; conditions: Staphylococcus aureus, RN450, 18 h
[2] = tested on: E. coli mL308 225; assay: In Vitro Anti-Bacterial Activity Assay (MIC), gram negative; assay type: cell-based; conditions: Escherichia coli, ML308225, 18 h
[3] = gram positive bacteria, read-out: Antibiotic Activity Gram + (MIC)
[4] = gram negative bacteria, read-out: Antibiotic Activity Gram − (MIC)
[5] = MIC class, Table 3, read-out: Antibiotic Activity Gram +
[6] = MIC class, Table 3, read-out: Antibiotic Activity Gram −
[7] = MIC class, Table 3 (Continued), read-out: Gram+ activity
[8] = MIC class, Table 3 (Continued), read-out: Gram− activity
[9] = read-out: Antibiotic Activity Gram +

Row | Compound | MIC [1, 3] [µg/mL] | MIC [2, 4] [µg/mL] | MIC [1, 5] [µg/mL] | MIC [2, 6] [µg/mL] | also measured
1 | CN(C)c1cc(CNC(=O)Nc2ccc3c(c2)OCO3)c(O)c2c1C[C@H]1C[C@H]3[C@H](N(C)C)C(O)=C(C(N)=O)C(=O)[C@@]3(O)C(O)=C1C2=O | < 4 | > 4 | – | – | –
2 | C=CCCOC(=O)NCc1cc(N(C)C)c2c(c1O)C(=O)C1=C(O)[C@]3(O)C(=O)C(C(N)=O)=C(O)[C@@H](N(C)C)[C@@H]3C[C@@H]1C2 [EO] | – | – | < 4 | > 4 | –
3 | CN(C)[C@@H]1C(O)=C(C(N)=O)C(=O)[C@@]2(O)C(O)=C3C(=O)c4c(O)ccc(-c5ccccc5Cl)c4C[C@H]3C[C@@H]12 | – | – | – | – | MIC [1, 7]: < 4 µg/mL; MIC [2, 8]: < 4 µg/mL
4 | CC1c2ccc(C3C=CCC3)c(O)c2C(=O)C2=C(O)[C@]3(O)C(=O)C(C(N)=O)=C(O)[C@@H](N(C)C)[C@@H]3[C@@H](O)[C@@H]21 (stereo partly shown) | – | – | – | – | MIC [1, 7]: < 4 µg/mL; MIC [2, 8]: < 4 µg/mL
5 | CN(C)c1cc(CNC(=O)C2CCCN2)c(O)c2c1C[C@H]1C[C@H]3[C@H](N(C)C)C(O)=C(C(N)=O)C(=O)[C@@]3(O)C(O)=C1C2=O (stereo partly shown) | > 4 | > 4 | – | – | –
6 | CN(C)[C@@H]1C(O)=C(C(N)=O)C(=O)[C@@]2(O)C(O)=C3C(=O)c4c(O)ccc(-c5cccnc5)c4C[C@H]3C[C@@H]12 | < 4 | < 4 | – | – | –
7 | COC(=O)c1ccc(-c2ccc(O)c3c2C[C@H]2C[C@H]4[C@H](N(C)C)C(O)=C(C(N)=O)C(=O)[C@@]4(O)C(O)=C2C3=O)cc1 | – | – | – | – | MIC [1, 7]: < 4 µg/mL; MIC [2, 8]: < 4 µg/mL
8 | CN(C)[C@@H]1C(O)=C(C(N)=O)C(=O)[C@@]2(O)C(O)=C3C(=O)c4c(O)ccc(-c5ccc6c(c5)OCO6)c4C[C@H]3C[C@@H]12 [drawing 3286] | – | – | – | – | MIC [1, 7]: < 4 µg/mL; MIC [2, 8]: < 4 µg/mL
9 | CN(C)c1cc(CNCc2ccc(F)cc2)c(O)c2c1C[C@H]1C[C@H]3[C@H](N(C)C)C(O)=C(C(N)=O)C(=O)[C@@]3(O)C(O)=C1C2=O | < 4 | < 4 | – | – | –
10 | CN(C)c1cc(CNCc2ccccc2)c(O)c2c1C[C@H]1C[C@H]3[C@H](N(C)C)C(O)=C(C(N)=O)C(=O)[C@@]3(O)C(O)=C1C2=O [MW] | – | – | < 4 | < 4 | –
11 | COc1ccc(CNCCC#N)cc1-c1ccc(O)c2c1C[C@H]1C[C@H]3[C@H](N(C)C)C(O)=C(C(N)=O)C(=O)[C@@]3(O)C(O)=C1C2=O | < 4 | > 4 | – | – | –
12 | CNCOc1ccc(-c2ccc(O)c3c2C[C@H]2C[C@H]4[C@H](N(C)C)C(O)=C(C(N)=O)C(=O)[C@@]4(O)C(O)=C2C3=O)cc1 | < 4 | < 4 | – | – | –
13 | CN(C)[C@@H]1C(O)=C(C(N)=O)C(=O)[C@@]2(O)C(O)=C3C(=O)c4c(O)ccc(-c5ccc(CN6CCOCC6)c6ccccc56)c4C[C@H]3C[C@@H]12 | < 4 | < 4 | – | – | –
14 | CN(C)c1cc(F)c(O)c2c1C[C@H]1C[C@H]3C(N(C)C)C(O)=C(C(N)=O)C(=O)[C@@]3(O)C(O)=C1C2=O (stereo partly shown) [KZ] | – | – | < 4 | < 4 | –
15 | CN(C)c1cc(NCc2ccc(C#N)cc2)c(O)c2c1C[C@H]1C[C@H]3[C@H](N(C)C)C(O)=C(C(N)=O)C(=O)[C@@]3(O)C(O)=C1C2=O | > 4 | > 4 | – | – | –
16 | CN(C)[C@@H]1C(O)=C(C(N)=O)C(=O)[C@@]2(O)C(O)=C3C(=O)c4c(O)ccc(CNC(=O)C(C)(C)C)c4C[C@H]3C[C@@H]12 | < 4 | > 4 | – | – | –
17 | C[C@H]1c2cccc(O)c2C(=O)C2=C(O)[C@]3(O)C(=O)C(C(N)=O)=C(O)[C@@H](N(C)C)[C@@H]3[C@@H](OC(=O)CCN3CCCC3)[C@@H]21 [R] | – | – | < 4 | < 4 | –
18 | C[C@H]1c2c(Br)ccc(O)c2C(=O)C2=C(O)[C@]3(O)C(=O)C(C(N)=O)=C(O)[C@@H](N(C)C)[C@@H]3[C@@H](O)[C@@H]21 | > 4 | > 4 | – | – | –
19 | CCc1cc(CNC(C)=O)c(O)c2c1C[C@H]1C[C@H]3C(N(C)C)C(O)=C(C(N)=O)C(=O)[C@@]3(O)C(O)=C1C2=O (stereo partly shown) [EM] | – | – | < 4 | > 4 | –
20 | CCCCC#Cc1cc(N(C)C)c2c(c1O)C(=O)C1=C(O)[C@]3(O)C(=O)C(C(N)=O)=C(O)[C@@H](N(C)C)[C@@H]3C[C@@H]1C2 | < 4 | < 4 | – | – | –
21 | CN(C)CCN(Cc1ccccc1)Cc1ccc(-c2cc(N(C)C)c3c(c2O)C(=O)C2=C(O)[C@]4(O)C(=O)C(C(N)=O)=C(O)[C@@H](N(C)C)[C@@H]4C[C@@H]2C3)o1 | > 4 | > 4 | – | – | –
22 | CN(C)c1cc(NC2CCN(Cc3ccccc3)CC2)c(O)c2c1C[C@H]1C[C@H]3[C@H](N(C)C)C(O)=C(C(N)=O)C(=O)[C@@]3(O)C(O)=C1C2=O [KM] | – | – | > 4 | > 4 | –
23 | CN(C)[C@@H]1C(O)=C(C(N)=O)C(=O)[C@@]2(O)C(O)=C3C(=O)c4c(O)c(C(C)(C)C)cc(CNC(=O)c5cccnc5)c4C[C@H]3C[C@@H]12 [CE] | – | – | > 4 | > 4 | –

Row | Compound | MIC [1, 3] [µg/mL] | MIC [2, 4] [µg/mL] | MIC [1, 5] [µg/mL] | MIC [2, 6] [µg/mL] | also measured
24 | CN(C)[C@@H]1C(O)=C(C(N)=O)C(=O)[C@@]2(O)C(O)=C3C(=O)c4c(O)ccc(-c5ccc(O)nc5)c4C[C@H]3C[C@@H]12 | < 4 | < 4 | – | – | –
25 | CN(C)[C@H]1C(O)=C(C(N)=O)C(=O)[C@@]2(O)C(O)=C3C(=O)c4c(O)ccc(-c5ccc(NC(=O)C6CC6)cc5)c4C[C@H]3C[C@@H]12 [GQ] | – | – | < 4 | > 4 | –
26 | COc1cc(C/C=C\c2ccc(O)c3c2C[C@H]2C[C@H]4[C@H](N(C)C)C(O)=C(C(N)=O)C(=O)[C@@]4(O)C(O)=C2C3=O)ccc1O [BW] | – | – | < 4 | > 4 | –
27 | CN1CCCC1=Nc1ccc(-c2ccc(O)c3c2C[C@H]2C[C@H]4[C@@H](N(C)C)C(O)=C(C(N)=O)C(=O)[C@@]4(O)C(O)=C2C3=O)cc1 [GP] | – | – | < 4 | > 4 | –
28 | CN(C)[C@@H]1C(O)=C(C(N)=O)C(=O)[C@@]2(O)C(O)=C3C(=O)c4c(O)ccc(-c5ccc(CN6CCOCC6)o5)c4C[C@H]3C[C@@H]12 [HM] | – | – | < 4 | < 4 | –
29 | CN(C)[C@@H]1C(O)=C(C(N)=O)C(=O)[C@@]2(O)C(O)=C3C(=O)c4c(O)ccc(C#Cc5ccccc5F)c4C[C@H]3C[C@@H]12 | – | – | – | – | MIC [1, 7]: < 4 µg/mL; MIC [2, 8]: < 4 µg/mL
30 | CN(C)[C@@H]1C(O)=C(C(N)=O)C(=O)[C@@]2(O)C(O)=C3C(=O)c4c(O)ccc(-c5cncc(Br)c5)c4C[C@H]3C[C@@H]12 | < 4 | < 4 | – | – | –
31 | CN(C)CC#Cc1cc(N(C)C)c2c(c1O)C(=O)C1=C(O)[C@]3(O)C(=O)C(C(N)=O)=C(O)[C@@H](N(C)C)[C@@H]3C[C@@H]1C2 | – | – | – | – | MIC [1, 7]: > 4 µg/mL; MIC [2, 8]: > 4 µg/mL
32 | CC(C)S(=O)(=O)NCC#Cc1cc(N(C)C)c2c(c1O)C(=O)C1=C(O)[C@]3(O)C(=O)C(C(N)=O)=C(O)[C@@H](N(C)C)[C@@H]3C[C@@H]1C2 [DI] | – | – | > 4 | > 4 | –
33 | CN(C)[C@@H]1C(O)=C(C(N)=O)C(=O)[C@@]2(O)C(O)=C3C(=O)c4c(O)ccc(S(=O)(=O)O)c4C[C@H]3C[C@@H]12 | > 4 | > 4 | – | – | –
34 | CN(C)c1cc(CNOC(C)(C)C)c(O)c2c1C[C@H]1C[C@H]3[C@H](N(C)C)C(O)=C(C(N)=O)C(=O)[C@@]3(O)C(O)=C1C2=O | < 4 | < 4 | – | – | –
35 | CN(C)/C=N/c1ccc(O)c2c1C[C@H]1C[C@H]3[C@@H](N(C)C)C(O)=C(C(N)=O)C(=O)[C@@]3(O)C(O)=C1C2=O [QC] | – | – | < 4 | < 4 | –
36 | CC(C)NCc1ccc(-c2ccc(O)c3c2C[C@H]2C[C@H]4[C@H](N(C)C)C(O)=C(C(N)=O)C(=O)[C@@]4(O)C(O)=C2C3=O)c2ccccc12 [GB] | – | – | < 4 | < 4 | –
37 | Cc1cc(-c2ccccn2)c2c(c1O)C(=O)C1=C(O)[C@]3(O)C(=O)C(C(N)=O)=C(O)[C@@H](N(C)C)[C@@H]3C[C@@H]1C2 | < 4 | > 4 | – | – | –
38 | CN(C)c1ccc(NC(=O)NCc2cc(N(C)C)c3c(c2O)C(=O)C2=C(O)[C@]4(O)C(=O)C(C(N)=O)=C(O)[C@@H](N(C)C)[C@@H]4C[C@@H]2C3)cc1 [FN] | – | – | < 4 | > 4 | –
39 | CC1c2ccc(-c3ccccc3)c(O)c2C(=O)C2=C(O)[C@]3(O)C(=O)C(C(N)=O)=C(O)[C@@H](N(C)C)[C@@H]3[C@@H](O)[C@@H]21 (stereo partly shown) | – | – | – | – | MIC [1, 7]: < 4 µg/mL; MIC [2, 8]: < 4 µg/mL
40 | CN(C)c1cc(NC(=S)Nc2cc(C(F)(F)F)cc(C(F)(F)F)c2)c(O)c2c1C[C@H]1C[C@H]3[C@H](N(C)C)C(O)=C(C(N)=O)C(=O)[C@@]3(O)C(O)=C1C2=O [CI] | – | – | < 4 | > 4 | –
41 | COc1ccc(OC(=O)Nc2ccc(-c3ccc(O)c4c3C[C@H]3C[C@H]5[C@@H](N(C)C)C(O)=C(C(N)=O)C(=O)[C@@]5(O)C(O)=C3C4=O)cc2)cc1 [GC] | – | – | – | – | MIC [1, 9]: > 4 µg/mL; MIC ([2]; read-out: Antibiotic Activity Gram −): > 4 µg/mL
42 | CN(C)c1cc(NC2CC(C)(C)NC(C)(C)C2)c(O)c2c1C[C@H]1C[C@H]3[C@H](N(C)C)C(O)=C(C(N)=O)C(=O)[C@@]3(O)C(O)=C1C2=O | > 4 | > 4 | – | – | –
43 | C/C(=N\OC(C)(C)C)c1ccc(O)c2c1C[C@H]1C[C@H]3[C@H](N(C)C)C(O)=C(C(N)=O)C(=O)[C@@]3(O)C(O)=C1C2=O | < 4 | < 4 | – | – | –
44 | CCOP(=O)(OCC)C(Nc1cc(N(C)C)c2c(c1O)C(=O)C1=C(O)[C@]3(O)C(=O)C(C(N)=O)=C(O)[C@@H](N(C)C)[C@@H]3C[C@@H]1C2)c1ccc(OC)cc1 (stereo partly shown) [Z] | – | – | – | – | MIC [1, 9]: < 4 µg/mL
45 | CCCC(C)(C)NC(=O)C1=C(O)[C@@H](N(C)C)[C@@H]2[C@@H](O)[C@H]3C(=C(O)[C@]2(O)C1=O)C(=O)c1c(O)cccc1[C@@H]3C [P] | – | – | < 4 | – | –
